Target: T1, cellular PARG (Homo sapiens, UniProt Q86W56)
T1 construct: endogenous in cells; host or cells: HeLa
Experiment: Nuclear PAR accumulation assay (immunofluorescence high-content imaging, MMS-treated HeLa cells)
Assay type: cell-based
Settings: 1 hour compound then MMS 50 μg/mL for an additional hour
Summary of the method: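 HeLa cells pretreated with compound for 1 h at 37° C, then given 50 μg/mL MMS for another hour. After methanol fixation, PAR was immunostained with DAPI nuclear counterstain; per-nucleus intensity and percent PAR-positive cells were imaged at 20× (≥1,000 cells/well). IC50 from four-parameter logistic fit.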

T1 sequence (Q86W56 whole entry): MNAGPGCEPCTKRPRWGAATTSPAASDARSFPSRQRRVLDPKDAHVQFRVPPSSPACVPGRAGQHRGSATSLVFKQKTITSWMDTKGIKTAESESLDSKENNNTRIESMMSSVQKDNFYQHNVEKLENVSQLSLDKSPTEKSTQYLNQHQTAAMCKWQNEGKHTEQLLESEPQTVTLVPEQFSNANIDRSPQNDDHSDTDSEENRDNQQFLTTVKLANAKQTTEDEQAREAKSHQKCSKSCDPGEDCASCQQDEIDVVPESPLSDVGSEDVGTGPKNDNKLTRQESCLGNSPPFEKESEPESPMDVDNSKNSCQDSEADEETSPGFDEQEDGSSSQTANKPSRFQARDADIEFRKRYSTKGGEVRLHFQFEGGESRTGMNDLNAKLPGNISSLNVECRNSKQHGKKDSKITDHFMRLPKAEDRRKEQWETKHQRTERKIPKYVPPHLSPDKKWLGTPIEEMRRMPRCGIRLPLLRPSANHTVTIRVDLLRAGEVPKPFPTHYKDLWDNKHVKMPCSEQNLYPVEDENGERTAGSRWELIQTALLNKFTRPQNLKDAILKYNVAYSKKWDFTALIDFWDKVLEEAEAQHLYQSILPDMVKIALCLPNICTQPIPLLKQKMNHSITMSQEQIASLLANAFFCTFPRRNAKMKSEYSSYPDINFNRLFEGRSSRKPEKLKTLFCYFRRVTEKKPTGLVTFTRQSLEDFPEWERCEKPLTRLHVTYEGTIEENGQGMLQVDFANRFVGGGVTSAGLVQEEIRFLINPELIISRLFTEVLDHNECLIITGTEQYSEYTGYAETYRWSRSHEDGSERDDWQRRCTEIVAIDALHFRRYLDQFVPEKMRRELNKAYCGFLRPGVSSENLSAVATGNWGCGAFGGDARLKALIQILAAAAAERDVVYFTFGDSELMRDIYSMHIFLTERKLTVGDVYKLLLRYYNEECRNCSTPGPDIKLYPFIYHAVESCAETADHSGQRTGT

| SMILES | IC50 |
| --- | --- |
| Cc1cc(C#C[C@@H]2CN=C3N(Cc4cnn(C)c4)C(=O)c4cc(S(=O)(=O)NC5(C)CC5)ccc4N32)sn1 [Example 194, (R)-4-((1-methyl-1H-pyrazol-4-yl)methyl)-N-(1-methylcyclopropyl)-1-((3-methylisothiazol-5-yl)ethynyl)-5-oxo-1,2,4,5-tetrahydroimidazo[1,2-a]quinazoline-7-sulfonamide] | < 100 nM |
| Cn1cc(CN2C(=O)c3cc(S(=O)(=O)NC4(C)CC4)cc(C4=CCCC4)c3N3CC(C)(C)N=C23)cn1 [Example 11, 9-(cyclopent-1-en-1-yl)-2,2-dimethyl-4-((1-methyl-1H-pyrazol-4-yl)methyl)-N-(1-methylcyclopropyl)-5-oxo-1,2,4,5-tetrahydroimidazo[1,2-a]quinazoline-7-sulfonamide] | < 100 nM |
| C#C[C@@H]1CN=C2N(Cc3cnn4c3CNCC4)C(=O)c3cc(S(=O)(=O)NC4(C)CC4)cc(Cl)c3N21 [Example 297, (R)-9-chloro-1-ethynyl-N-(1-methylcyclopropyl)-5-oxo-4-((4,5,6,7-tetrahydropyrazolo[1,5-a]pyrazin-3-yl)methyl)-1,2,4,5-tetrahydroimidazo[1,2-a]quinazoline-7-sulfonamide] | < 100 nM |
| C[C@@H]1CN=C2N(Cc3ccnc(C#N)c3)C(=O)c3cc(S(=O)(=O)NC4(C)CC4)ccc3N21 [Example 239, (R)-4-((2-cyanopyridin-4-yl)methyl)-1-methyl-N-(1-methylcyclopropyl)-5-oxo-1,2,4,5-tetrahydroimidazo[1,2-a]quinazoline-7-sulfonamide] | 100 to 1000 nM |
| CN1CCC([C@@H]2CN=C3N(Cc4cnn(C)c4)C(=O)c4cc(S(=O)(=O)NC5(C)CC5)ccc4N32)CC1 [Example 70, (R)-4-((1-methyl-1H-pyrazol-4-yl)methyl)-N-(1-methylcyclopropyl)-1-(1-methylpiperidin-4-yl)-5-oxo-1,2,4,5-tetrahydroimidazo[1,2-a]quinazoline-7-sulfonamide] | 1000 to 10000 nM |
| CCN1C(=O)c2cc(S(=O)(=O)NC3(C)CC3)ccc2N2C1=NC[C@H]2C#Cc1cnn2cccnc12 [Example 190, (R)-4-ethyl-N-(1-methylcyclopropyl)-5-oxo-1-(pyrazolo[1,5-a]pyrimidin-3-ylethynyl)-1,2,4,5-tetrahydroimidazo[1,2-a]quinazoline-7-sulfonamide] | < 100 nM |
| [2H]C([2H])(c1cnn(C)c1)N1C(=O)c2cc(S(=O)(=O)NC3(C)CC3)ccc2N2C1=NC[C@H]2C#Cc1cnc(C2CC2)nc1 [Example 261, (R)-1-((2-cyclopropylpyrimidin-5-yl)ethynyl)-4-((1-methyl-1H-pyrazol-4-yl)methyl-d2)-N-(1-methylcyclopropyl)-5-oxo-1,2,4,5-tetrahydroimidazo[1,2-a]quinazoline-7-sulfonamide] | < 100 nM |
| [2H]C([2H])(c1cnn(C)c1)N1C(=O)c2cc(S(=O)(=O)NC3(C)CC3)ccc2N2C1=NC[C@@H]2C#C [Example 90, (S)-1-ethynyl-4-((1-methyl-1H-pyrazol-4-yl)methyl-d2)-N-(1-methylcyclopropyl)-5-oxo-1,2,4,5-tetrahydroimidazo[1,2-a]quinazoline-7-sulfonamide] | 100 to 1000 nM |
| C[C@H]1CN(c2cc(S(=O)(=O)NC3(C)CC3)cc3c2N2CC(C)(C)N=C2N(C)C3=O)C[C@H](C)N1 [Example 54, 9-((3S,5S)-3,5-dimethylpiperazin-1-yl)-2,2,4-trimethyl-N-(1-methylcyclopropyl)-5-oxo-1,2,4,5-tetrahydroimidazo[1,2-a]quinazoline-7-sulfonamide] | 100 to 1000 nM |
| COCc1nocc1CN1C(=O)c2cc(S(=O)(=O)NC3(C)CC3)ccc2N2C1=NC[C@H]2C [Example 7, (R)-4-((3-(methoxymethyl)isoxazol-4-yl)methyl)-1-methyl-N-(1-methylcyclopropyl)-5-oxo-1,2,4,5-tetrahydroimidazo[1,2-a]quinazoline-7-sulfonamide] | 100 to 1000 nM |
| COc1cc(C#CC2CN=C3N(C)C(=O)c4cc(S(=O)(=O)NC5(C)CC5)ccc4N32)ccn1 (stereo not shown) [Example 227, 1-((2-methoxypyridin-4-yl)ethynyl)-4-methyl-N-(1-methylcyclopropyl)-5-oxo-1,2,4,5-tetrahydroimidazo[1,2-a]quinazoline-7-sulfonamide] | < 100 nM |
| CN1C(=O)c2cc(S(=O)(=O)NC3(C)CC3)ccc2N2C1=NCC2C#Cc1ccnc(C(F)(F)F)c1 (stereo not shown) [Example 226, 4-methyl-N-(1-methylcyclopropyl)-5-oxo-1-((2-(trifluoromethyl)pyridin-4-yl)ethynyl)-1,2,4,5-tetrahydroimidazo[1,2-a]quinazoline-7-sulfonamide] | 100 to 1000 nM |
| Cn1cc(CN2C(=O)c3cc(S(=O)(=O)NC4(C)CC4)ccc3N3C2=NCC3COc2ccc(Cl)cc2)cn1 (stereo not shown) [Example 143, 1-((4-chlorophenoxy)methyl)-4-((1-methyl-1H-pyrazol-4-yl)methyl)-N-(1-methylcyclopropyl)-5-oxo-1,2,4,5-tetrahydroimidazo[1,2-a]quinazoline-7-sulfonamide] | 100 to 1000 nM |
| [2H]C([2H])(c1cnn(C)c1)N1C(=O)c2cc(S(=O)(=O)NC3(C)CC3)ccc2N2C1=NC[C@H]2C#Cc1cnc(OC)nc1 [Example 259, (R)-1-((2-methoxypyrimidin-5-yl)ethynyl)-4-((1-methyl-1H-pyrazol-4-yl)methyl-d2)-N-(1-methylcyclopropyl)-5-oxo-1,2,4,5-tetrahydroimidazo[1,2-a]quinazoline-7-sulfonamide] | < 100 nM |
| Cn1cc(CN2C(=O)c3cc(S(=O)(=O)NC4(C)CC4)ccc3N3C2=NC[C@H]3C#Cc2ccncc2)cn1 [Example 116, (R)-4-((1-methyl-1H-pyrazol-4-yl)methyl)-N-(1-methylcyclopropyl)-5-oxo-1-(pyridin-4-ylethynyl)-1,2,4,5-tetrahydroimidazo[1,2-a]quinazoline-7-sulfonamide] | < 100 nM |
| [2H]C([2H])(c1cnn(C)c1)N1C(=O)c2cc(S(=O)(=O)NC3(C)CC3)ccc2N2C1=NC[C@H]2COc1ccccn1 [Example 110, (S)-4-((1-methyl-1H-pyrazol-4-yl)methyl-d2)-N-(1-methylcyclopropyl)-5-oxo-1-((pyridin-2-yloxy)methyl)-1,2,4,5-tetrahydroimidazo[1,2-a]quinazoline-7-sulfonamide] | < 100 nM |
| [2H]C([2H])(c1cnn(C)c1)N1C(=O)c2cc(S(=O)(=O)NC3(C)CC3)ccc2N2C1=NCC21CC(CN(C)C)C1 (stereo not shown) [Example 109, 3-((dimethylamino)methyl)-4′-((1-methyl-1H-pyrazol-4-yl)methyl-d2)-N-(1-methylcyclopropyl)-5′-oxo-4′,5′-dihydro-2′H-spiro[cyclobutane-1,1′-imidazo[1,2-a]quinazoline]-7′-sulfonamide] | 100 to 1000 nM |
| [2H]C([2H])(c1cnn(C)c1)N1C(=O)c2cc(S(=O)(=O)NC3(C)CC3)ccc2N2C1=NC[C@H]2C#Cc1cnc(C)nc1 [Example 275, (R)-4-((1-methyl-1H-pyrazol-4-yl)methyl-d2)-N-(1-methylcyclopropyl)-1-((2-methylpyrimidin-5-yl)ethynyl)-5-oxo-1,2,4,5-tetrahydroimidazo[1,2-a]quinazoline-7-sulfonamide] | < 100 nM |
| [2H]C([2H])(c1cnn(C)c1)N1C(=O)c2cc(S(=O)(=O)NC3(C)CC3)ccc2N2C1=NC[C@H]2C#CC1(N(C)CCO)CC1 [Example 244, (R)-1-((1-((2-hydroxyethyl)(methyl)amino)cyclopropyl)ethynyl)-4-((1-methyl-1H-pyrazol-4-yl)methyl-d2)-N-(1-methylcyclopropyl)-5-oxo-1,2,4,5-tetrahydroimidazo[1,2-a]quinazoline-7-sulfonamide] | < 100 nM |
| CN1C(=O)c2cc(S(=O)(=O)NC3(C)CC3)ccc2N2C1=NCC2C#Cc1ccc2nccn2n1 (stereo not shown) [Example 176, 1-(imidazo[1,2-b]pyridazin-6-ylethynyl)-4-methyl-N-(1-methylcyclopropyl)-5-oxo-1,2,4,5-tetrahydroimidazo[1,2-a]quinazoline-7-sulfonamide] | 100 to 1000 nM |
| [2H]C([2H])(c1cnn(C)c1)N1C(=O)c2cc(S(=O)(=O)NC3(C)CC3)c(SC)cc2N2C1=N[C@H]1CCC[C@H]12 [Example 240, (7aS,10aR)-6-((1-methyl-1H-pyrazol-4-yl)methyl-d2)-N-(1-methylcyclopropyl)-2-(methylthio)-5-oxo-6,7a,8,9,10,10a-hexahydro-5H-cyclopenta[4,5]imidazo[1,2-a]quinazoline-3-sulfonamide] | 100 to 1000 nM |
| [2H]C([2H])([2H])n1nccc1C#C[C@@H]1CN=C2N(Cc3cnn(C)c3)C(=O)c3cc(S(=O)(=O)NC4(C)CC4)ccc3N21 [Example 211, (R)-4-((1-methyl-1H-pyrazol-4-yl)methyl)-1-((1-(methyl-d3)-1H-pyrazol-5-yl)ethynyl)-N-(1-methylcyclopropyl)-5-oxo-1,2,4,5-tetrahydroimidazo[1,2-a]quinazoline-7-sulfonamide] | < 100 nM |
| [2H]C([2H])(c1cnn(C)c1)N1C(=O)c2cc(S(=O)(=O)NC3(C)CC3)cc(Br)c2N2C1=NC[C@H]2C#C [Example 98, (R)-9-bromo-1-ethynyl-4-((1-methyl-1H-pyrazol-4-yl)methyl-d2)-N-(1-methylcyclopropyl)-5-oxo-1,2,4,5-tetrahydroimidazo[1,2-a]quinazoline-7-sulfonamide] | < 100 nM |
| C[C@H]1CON=C2N(Cc3cnn(C)c3)C(=O)c3cc(S(=O)(=O)NC4(C)CC4)ccc3N21 [Example 220, (S)-1-methyl-5-((1-methyl-1H-pyrazol-4-yl)methyl)-N-(1-methylcyclopropyl)-6-oxo-1,2,5,6-tetrahydro-[1,2,4]oxadiazino[4,3-a]quinazoline-8-sulfonamide] | 100 to 1000 nM |
| C#CCn1cc(CN2C(=O)c3cc(S(=O)(=O)NC4(C)CC4)ccc3N3C2=NC[C@H]3C)cn1 [Example 162, (R)-1-methyl-N-(1-methylcyclopropyl)-5-oxo-4-((1-(prop-2-yn-1-yl)-1H-pyrazol-4-yl)methyl)-1,2,4,5-tetrahydroimidazo[1,2-a]quinazoline-7-sulfonamide] | < 100 nM |
